Among the data in article PMC9821969, “Metabolomic Strategy to Characterize the Profile of Secondary Metabolites in Aspergillus aculeatus DL1011 Regulated by Chemical Epigenetic Agents” (Molecules, 2022) are IC50 values, retold here.

This test deals with T1, SHP1 (Homo sapiens, UniProt P29350).
T1 construct: gene PTPN6; domain protein
T1 sequence (P29350 244-515 limits assumed): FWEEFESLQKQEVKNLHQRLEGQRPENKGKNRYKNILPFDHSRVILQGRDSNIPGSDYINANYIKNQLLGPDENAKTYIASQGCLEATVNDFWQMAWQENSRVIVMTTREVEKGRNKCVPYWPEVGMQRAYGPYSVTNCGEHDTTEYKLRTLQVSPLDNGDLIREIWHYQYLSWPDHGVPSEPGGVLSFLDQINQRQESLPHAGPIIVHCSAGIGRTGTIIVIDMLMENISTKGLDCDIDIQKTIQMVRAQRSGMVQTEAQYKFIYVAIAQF
The test is described as follows: pNPP phosphatase assay, absorbance at […] nm. The test is classed as biochemical.

With `CO[C@@]1(C)[C@H](O)C(=O)C(C)=C(O)[C@@H]1Oc1c(C)c(O)cc(C)c1C(=O)O` [S10, Roseopurpurin A], the IC50 stood at 16 µM.
